Values of other authors in EP0851285A1, “Photothermographic recording material coatable from an aqueous medium” (priority 1996, dated 1998).

Conditions: salts B

| Structure (SMILES) | Solubility in water at 20°C (20°C) | Solubility in water (at 15°C (cell overrides title's 20°C)) |
| --- | --- | --- |
| O=P(=O)[O-].[Ag+] [silver metaphosphate] | 0.32 g/100mL water |  |
| [Ag+].[Ag+].[O]=[W](=[O])([O-])[O-] [silver tungstate] |  | 0.05 (at 15°C) g/100mL water |
